From patent US6838476B1, “Imidazoles with anti-inflammatory activity” (J. Uriach & Cia, SA, priority 1998, dated 2005)
Counter-ions that a name gives are not always drawn.

Assays:
cyclooxygenase-2 (COX-2) = biological target: T1, cyclooxygenase-2 (COX-2) (Homo sapiens, UniProt P35354); assay: Inhibition of cyclooxygenase-2 (COX-2) activity in human blood (prostaglandin E2 levels after LPS, aspirin added); assay type: cell-based; settings: for inhibition at 1 µM: read-out: % inhibition COX-2 (1 μM), 1 μM test compound; for inhibition at 10 µM: read-out: % inhibition COX-2 (10 μM), 10 μM test compound; for % inhibition COX-2 (1 μM): 1 μM test compound; for % inhibition COX-2 (10 μM): 10 μM test compound
T1 construct: 5 μL of LPS is also added (in order to induce COX-2 activy); from tissue; host or cells: heparinized human whole blood, LPS-stimulated, with aspirin added
T1 sequence (P35354 18-604): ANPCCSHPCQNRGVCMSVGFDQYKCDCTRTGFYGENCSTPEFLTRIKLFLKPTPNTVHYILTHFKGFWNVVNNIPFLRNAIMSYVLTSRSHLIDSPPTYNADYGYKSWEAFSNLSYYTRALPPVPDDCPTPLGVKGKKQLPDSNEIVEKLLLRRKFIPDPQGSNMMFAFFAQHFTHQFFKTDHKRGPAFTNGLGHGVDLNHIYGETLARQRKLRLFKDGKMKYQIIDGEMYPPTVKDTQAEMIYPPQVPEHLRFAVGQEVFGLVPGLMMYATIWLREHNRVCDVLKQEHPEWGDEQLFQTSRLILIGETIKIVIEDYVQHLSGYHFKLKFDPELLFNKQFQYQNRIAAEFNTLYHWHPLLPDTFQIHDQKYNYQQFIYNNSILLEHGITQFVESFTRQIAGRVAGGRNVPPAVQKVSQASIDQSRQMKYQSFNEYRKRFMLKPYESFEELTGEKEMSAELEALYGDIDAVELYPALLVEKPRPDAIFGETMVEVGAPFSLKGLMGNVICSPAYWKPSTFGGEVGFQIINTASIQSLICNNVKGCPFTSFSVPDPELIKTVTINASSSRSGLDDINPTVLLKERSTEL
Procedure: (§1) Inhibition of cyclooxgenase-1 (COX-1) and cyclooxygenase-2 (COX-2) Activity in Human Blood
Blood is divided into two groups; one will be used to determine COX-1 activity and the other one for COX-2. The procedure to follow will be different in each case.
For COX-2, 3-mL tubes are prepared in duplicate containing 5 μL of the test compound (solution in DMSO) and 5 μL of vehicle in the case of blanks and controls. To each tube, 5 μL of a 2 mg/mL solution of aspirin in DMSO is also added (in order to inhibit COX-1 activity), and to all tubes except the blanks 5 μL of LPS is also added (in order to induce COX-2 activy). Finally, 1 mL of heparinized blood is added to each tube, and tubes are then stirred and placed in a thermostatized bath at 37° C. for 24 h. Then, tubes are centrifuged at 2000 g for 10 min at 4° C., the resulting plasma is collected and is frozen at −70° C. until use. COX-2 activity is determined by measuring prostaglandin E2 levels in the samples. The plasma stored at −70° C. is defrozen and prostaglandin E2 levels in these samples are determined using a kit (Kit Prostaglandin E2, Biotrak EIA system RPN222 Amershan), according to the manufacturer's instructions.

cyclooxygenase-1 (COX-1) = biological target: T2, cyclooxygenase-1 (COX-1) (Homo sapiens, UniProt P23219); assay: Inhibition of cyclooxygenase-1 (COX-1) activity in human blood (thromboxane B2 levels after ionophore A23187); assay type: cell-based; settings: for inhibition at 10 µM: read-out: % inhibition COX-1 (10 μM), 10 μM test compound; for % inhibition COX-1 (10 μM): 10 μM test compound
T2 construct: from tissue; host or cells: heparinized human whole blood
T2 sequence (P23219 24-599): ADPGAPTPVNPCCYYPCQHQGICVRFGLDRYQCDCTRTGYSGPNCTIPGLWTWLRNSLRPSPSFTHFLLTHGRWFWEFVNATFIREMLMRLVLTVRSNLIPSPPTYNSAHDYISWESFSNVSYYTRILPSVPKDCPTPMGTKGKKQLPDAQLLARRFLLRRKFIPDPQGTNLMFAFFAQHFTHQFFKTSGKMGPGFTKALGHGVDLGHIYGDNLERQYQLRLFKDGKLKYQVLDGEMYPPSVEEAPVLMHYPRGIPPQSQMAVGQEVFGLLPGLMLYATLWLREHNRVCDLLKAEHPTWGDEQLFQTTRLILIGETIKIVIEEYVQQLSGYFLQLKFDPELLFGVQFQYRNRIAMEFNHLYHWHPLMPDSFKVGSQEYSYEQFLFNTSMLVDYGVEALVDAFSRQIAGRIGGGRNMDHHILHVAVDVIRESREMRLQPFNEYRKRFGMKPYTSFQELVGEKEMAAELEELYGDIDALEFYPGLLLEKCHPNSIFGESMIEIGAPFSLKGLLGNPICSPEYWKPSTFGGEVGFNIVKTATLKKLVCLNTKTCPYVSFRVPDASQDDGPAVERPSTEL
Procedure: as §1
Heparinized human blood from healthy volunteers who had not taken non-steroidal anti-inflammatory drugs (NSAIDs) for a week, and neither alcohol nor xanthines 24 h before blood collection, is used. Blood is divided into two groups; one will be used to determine COX-1 activity and the other one for COX-2. The procedure to follow will be different in each case.
For COX-1, 12-mL tubes are used. 5 μL of the test compound (in DMSO solution; in duplicate) are placed in each tube. Aditionally two tubes for blanks and two tubes for controls containing 5 μL of DMSO are used. Next, 1 mL of blood is added to each tube and they are stirred. The tubes are placed in a thermostatized bath at 37° C. for 5 h. Then, 5 μL of 5 mM ionophore A23187 is added to each tube, except to the blanks, and tubes are incubated for 30 min more at 37° C. After this time, the tubes are placed in ice and 100 μL of a 100 mM EGTA solution is added to stop the reaction. 2.5 mL of methanol is added to each tube to reach a final concentration of 70%. The tubes are stirred and frozen at −70° C. till their use. The COX-1 activity is determined by measuring thromboxane B2 levels in the samples. Blood is defrozen and centrifuged at 2000 g for 10 min at 4° C. 1 mL of supematant is evaporated under nitrogen to dryness. The solid residue thus obtained is resuspended in 1 mL of saline and the thromboxane B2 levels in these samples are determined using a kit (Kit Thromboxane B2, Biotrak EIA system RPN220 Amershan), according to the manufacturer's instructions.

| Structure (SMILES) | melting point | other results |
| --- | --- | --- |
| Cc1ccc(-c2c(Cl)ncn2-c2ccc(S(C)(=O)=O)cc2)cn1 [4(11), 4-Chloro-5-(6-methyl-3-pyridyl)-1-(4-methylsulfonylphenyl)imidazole] | – | inhibition at 1 µM (cyclooxygenase-2 (COX-2)): 58.4%; inhibition at 10 µM (cyclooxygenase-2 (COX-2)): 100%; inhibition at 10 µM (cyclooxygenase-1 (COX-1)): 39.7% |
| Cc1ccc(-c2cncn2-c2ccc(S(C)(=O)=O)cc2)cc1 [Example 1(1), 5-(4-Methylphenyl)-1-(4-methylsulfonylphenyl)imidazole] | 156 °C | – |
| CS(=O)(=O)c1ccc(-n2cnc(Cl)c2-c2ccccc2)cc1 [4(3), 4-Chloro-1-(4-methylsulfonylphenyl)-5-phenylimidazole] | – | inhibition at 1 µM (cyclooxygenase-2 (COX-2)): 82.6%; inhibition at 10 µM (cyclooxygenase-2 (COX-2)): 96%; inhibition at 10 µM (cyclooxygenase-1 (COX-1)): 47.9% |
| CS(=O)(=O)c1ccc(-n2cncc2-c2ccc(Cl)nc2)cc1 [Example 1(16), 5-(6-Chloro-3-pyridyl)-1-(4-methylsulfonylphenyl)imidazole] | 191 to 192 °C | – |
| CS(=O)(=O)c1ccc(-n2cnc(Cl)c2-c2ccc(Cl)nc2Cl)cc1 [4(17)] | – | % inhibition COX-2 (1 μM) (cyclooxygenase-2 (COX-2)): 65%; % inhibition COX-2 (10 μM) (cyclooxygenase-2 (COX-2)): 86.3%; % inhibition COX-1 (10 μM) (cyclooxygenase-1 (COX-1)): 22.7% |
| Cc1ccc(-c2c(Cl)ncn2-c2ccc(S(C)(=O)=O)cc2)cc1Cl (as salt: HCl) [4(13), 4-Chloro-5-(3-chloro-4-methylphenyl)-1-(4-methylsulfonylphenyl)-imidazole] | 181 to 182 °C | – |
| CS(=O)(=O)c1ccc(-c2cnc(C#N)n2-c2ccc(F)cc2)cc1 [Example 10, 1-(4-Fluorophenyl)-5-(4-methylsulfonylphenyl)imidazol-2-carbonitrile] | – | inhibition at 1 µM (cyclooxygenase-2 (COX-2)): 74%; inhibition at 10 µM (cyclooxygenase-2 (COX-2)): 100%; inhibition at 10 µM (cyclooxygenase-1 (COX-1)): 52.7% |
| CS(=O)(=O)c1ccc(-n2cncc2-c2ccccc2)cc1 [Example 1(3), 1-(4-Methylsulfonylphenyl)-5-phenylimidazole] | 164 °C | – |
| COCc1cccc(-c2c(Cl)ncn2-c2ccc(S(C)(=O)=O)cc2)c1 (as salt: HCl) [4(14), 4-Chloro-5-(3-methoxymethylphenyl)-1-(4-methylsulfonylphenyl)-imidazole] | 178 °C | – |
| NS(=O)(=O)c1ccc(-n2cnc(Cl)c2-c2ccc(Cl)c(Cl)c2)cc1 [13(2), 4-[4-Chloro-5-(3,4-dichlorophenyl)imidazol-1-yl]benzenesulfonamide] | 251 °C | – |
| CS(=O)(=O)c1ccc(-n2cncc2-c2ccc(F)cc2F)cc1 [Example 1(2), 5-(2,4-Difluorophenyl)-1-(4-methylsulfonylphenyl)imidazole] | 119 °C | – |
| Cc1ccc(-c2c(Cl)ncn2-c2ccc(S(N)(=O)=O)cc2)cc1 [13(3), 4-[4-Chloro-5-(4-methylphonyl)imidazol-1-yl]benzenesulfonamide] | – | % inhibition COX-2 (1 μM) (cyclooxygenase-2 (COX-2)): 76.1%; % inhibition COX-2 (10 μM) (cyclooxygenase-2 (COX-2)): 100%; % inhibition COX-1 (10 μM) (cyclooxygenase-1 (COX-1)): 71.3% |
| CS(=O)(=O)c1ccc(-n2cnc(Cl)c2-c2ccc(F)cc2)cc1 [Example 4, 4-Chloro-5-(4-fluorophenyl)-1-(4-methylsulfonylphenyl)imidazole] | – | inhibition at 1 µM (cyclooxygenase-2 (COX-2)): 89%; inhibition at 10 µM (cyclooxygenase-2 (COX-2)): 100%; inhibition at 10 µM (cyclooxygenase-1 (COX-1)): 37.8% |
| Cc1ccc(-c2cncn2-c2ccc(S(C)(=O)=O)cc2)cc1F [Example 1(8), 5-(3-Fluoro-4-methylphenyl)-1-(4-methylsulfonylphenyl)imidazole] | 147 °C | – |
| CS(=O)(=O)c1ccc(-n2cncc2-c2ccc(OC(F)(F)F)cc2)cc1 [Example 1(10), 1-(4-Methylsulfonylphenyl)-5-(4-trifluoromethoxyphenyl)imidazole] | 141 to 142 °C | – |
| CS(=O)(=O)c1ccc(-n2cnc(Cl)c2-c2ccc(Cl)nc2)cc1 (as salt: HCl) [4(16), 4-Chloro-5-(6-chloro-3-pyridyl)-1-(4-methylsulfonylphenyl)imidazole] | 223 °C | – |
| COc1ccc(-c2cncn2-c2ccc(S(C)(=O)=O)cc2)cc1 [Example 1(5), 5-(4-Methoxyphenyl)-1-(4-methylsulfonylphenyl)imidazole] | 185 to 187 °C | – |
| CS(=O)(=O)c1ccc(-n2cncc2-c2ccc(Cl)cc2)cc1 [Example 1(15), 5-(4-Chlorophenyl)-1-(4-methylsulfonylphenyl)imidazole] | 192 to 193 °C | – |
| COc1cc(-c2cncn2-c2ccc(S(C)(=O)=O)cc2)ccc1C [Example 1(14), 5-(3-Methoxy-4-methylphenyl)-1(4-methylsulfonylphenyl)imidazole] | 174 to 175 °C | – |
| CS(=O)(=O)c1ccc(-n2cnc(Cl)c2-c2ccc(Cl)c(Cl)c2)cc1 [4(4), 4-Chloro-5-(3,4-dichlorophenyl)-1(4-methylsulfonylphenyl)imidazole] | 156 to 157 °C | – |
| CS(=O)(=O)c1ccc(-n2cnc(Cl)c2-c2cnc(Cl)c(Cl)c2)cc1 [4(19), 4-Chloro-5-(5,6-dichloro-3-pyridyl)-1-(4-methylsulfonylphenyl)imidazole] | 223 to 230 °C | – |
| CS(=O)(=O)c1ccc(-n2cncc2-c2ccccc2F)cc1 [Example 1(9), 5-(2-Fluorophenyl)-1(4-methylsulfonylphenyl)imidazole] | 188 to 189 °C | – |

Further lines, with some results ahead:

| melting point | Structure (SMILES) | other results |
| --- | --- | --- |
| 153 to 155 °C | CSc1ccc(-c2cncn2-c2ccc(S(C)(=O)=O)cc2)cc1 [Example 1(24), 5-(4-Methylsulfanylphenyl)-1-(4-methylsulfonylphenyl)imidazole] | – |
| 238 to 241 °C | CC(=O)Nc1ccc(-c2[nH]c(-c3ccc(S(C)(=O)=O)cc3)nc2Cl)cc1 [Example 18, 5-(4-Acetylaminophenyl)-4-chloro-(4-methylsulfonylphenyl)imidazole] | – |
| 196 to 197 °C | NS(=O)(=O)c1ccc(-n2cncc2-c2ccc(F)cc2)cc1 [Example 14, 4-[5-(4-Fluorophenyl)imidazol-1-yl]benzenesulfonamide] | – |
| 100 to 101 °C | CCOc1cc(OCC)cc(-c2cncn2-c2ccc(S(C)(=O)=O)cc2)c1 [Example 1(21), 5-(3,5-Diethoxyphenyl)-1-(4-methylsulfonylphenyl)imidazole] | – |
| 185 to 193 °C | CS(=O)(=O)c1ccc(-c2cnc(Cl)n2-c2ccccc2)cc1 [Example 11, 2-Chloro-5-(4-methylsulfonylphenyl)-1-phenylimidazole] | – |
| 192 to 198 °C | CS(=O)(=O)c1ccc(-n2cncc2-c2cnc(Cl)c(Cl)c2)cc1 [Example 1(19), 5-(5,6-Dichloro-3-pyridyl)-1-(4-methylsulfonylphenyl)imidazole] | – |
| 192 to 198 °C | COc1ccc(-c2cncn2-c2ccc(S(C)(=O)=O)cc2)c(Cl)n1 [Example 1(18), 5-(2-Chloro-6-methoxy-3-pyridyl)-1-(4-methylsulfonylphenyl)imidazole] | – |
| 167 to 169 °C | CCCOc1ccc(-c2cncn2-c2ccc(S(C)(=O)=O)cc2)cc1 [Example 1(20), 1-(4-Methylsulfonylphenyl)-5-(4-propoxyphenyl)imidazole] | – |
